Columns and labels:
[1] = target: class B β-lactamase NDM-1 (Klebsiella pneumoniae, UniProt C7C422); assay: Inhibition of β-lactamases, nitrocefin hydrolysis; assay type: biochemical; settings: 15 μM nitrocefin
[2] = target: T1, IMP-1 metallo-β-lactamase (Serratia marcescens, UniProt P52699); assay: Inhibition of β-lactamases, nitrocefin hydrolysis; assay type: biochemical; settings: nitrocefin 100 μM, 10 min pre-incubation; read-out: IC50 IMP-1 (Class B)
T1 construct: made in house; host or cells: Escherichia coli BL21(DE3) carrying pCIP4
Text: IMP-1 metallo-β-lactamase was expressed in Esherichia coli BL21(DE3) carrying pCIP4 and purified as reported by Laraki et al. (Antimicrob. Agents Chemother. 1999, 43, 902-906). The homogeneity of the protein was confirmed by SDS-PAGE according to the method of Laemmli (Nature 1970, 227, 680-685). The molecular weight of purified IMP-1, Mr=25,112±0.5 Da, as determined by ESI-MS, was in agreement with that deduced from its amino acid sequence (Laraki et al. Antimicrob. Agents Chemother. 1999, 43, 890-901).
(§1) Assay conditions for IC50 determinations involved enzyme concentrations ranging between 2 and 6 nM. The concentration used for the nitrocefin substrate was 100 μM. Assays with OXA-10 and OXA-45 were conducted at pH 7.0 with 100 mM sodium phosphate buffer containing 25 mM sodium bicarbonate. Assays with KPC-2 and GC1 were performed at pH 7.0 in 50 mM HEPES buffer and assays with IMP-1 and VIM-2 were performed in the same buffer with the addition of 500 mM NaCl and 1 μM ZnSO4. BSA was used with all enzymes (except OXA-10 and KPC-2) at concentrations of 0.5-1.0 μg/mL.
Inhibitors were pre-incubated for 10 minutes at room temperature with enzyme assay solutions prior to the addition of the nitrocefin. These compounds were dissolved in DMSO and prepared at various concentrations such that the final concentration of DMSO was 1% during the pre-incubation. The reaction was initiated by the addition of the pre-incubated enzyme-cyclobutanone solution (90 μL) to a solution of nitrocefin in buffer (10 μL). Enzymatic activity was determined using the initial rate of increase in absorbance at 482 nm

[3] = target: T2, VIM-2 metallo-β-lactamase (Pseudomonas aeruginosa, UniProt Q9K2N0); assay: Inhibition of β-lactamases, nitrocefin hydrolysis; assay type: biochemical; settings: nitrocefin 100 μM, 10 min pre-incubation; read-out: IC50 VIM-2 (Class B)
T2 construct: made in house; host or cells: Escherichia coli BL21 (DE3) pLysS carrying pNOR2001
Experimental: VIM-2 metallo-β-lactamase was expressed in Escherichia coli BL21 (DE3) pLysS carrying pNOR2001 (a generous gift from P. Nordmann, Université Paris XI, France) and purified as reported by Poirel et al. (Antimicrob. Agents Chemother. 2000, 44, 891-897). The homogeneity and molecular weight of the mature VIM-2 (29.7 kDa) was determined by SDS-PAGE (Laemmli, U. K. Nature 1970, 227, 680-685). Enzyme concentration was determined from the absorbance at 280 nm (εEM=32,000 M^−1 cm^−1).
as §1
(§2) Inhibitors were pre-incubated for 10 minutes at room temperature with enzyme assay solutions prior to the addition of the nitrocefin. […] Enzymatic activity was determined using the initial rate of increase in absorbance at 482 nm

[4] = target: T3, class D β-lactamase OXA-10 (Pseudomonas aeruginosa, UniProt P14489); assay: Inhibition of β-lactamases, nitrocefin hydrolysis; assay type: biochemical
T3 construct: indicating a post-translational deletion of a 20 amino acid signal peptide; made in house; host or cells: Escherichia coli BL21 (DE3), pET24a-blaOXA-10, purified from culture supernatant
Text: OXA-10 β-lactamase was expressed and purified using a modified protocol of that reported by Golemi et al. (J. Am. Chem. Soc. 2000, 122, 6132-6133). The pET24a plasmid with the blaOXA-10 gene insert, a kind gift from Prof. S. Mobashery (Notre Dame University), was transformed into Escherichia coli BL21 (DE3) and induced with IPTG. Purification of the enzyme was achieved by the addition of ammonium sulfate to the induced culture supernatant. The protein precipitate collected (50-70% ammonium sulfate saturation) was dissolved and dialyzed against 10 mM Tris.SO4 buffer, pH 7.5, and further purified with a DE52 cellulose column (Whatman, UK) equilibrated with the same buffer. The material bound to the column was washed with 10 mM Tris.SO4 buffer, pH 7.5, followed by an elution with a K2SO4 gradient (0-100 mM). Protein fractions containing nitrocefin-hydrolyzing activity were concentrated and purity analyzed by SDS-PAGE. A molecular weight of 27,490 Da for OXA-10 was determined by ESI MS, indicating a post-translational deletion of a 20 amino acid signal peptide.
(§3) Assay conditions for IC50 determinations involved enzyme concentrations ranging between 2 and 6 nM. […]
as §2

[5] = target: T4, class C β-lactamase GC1 (Enterobacter cloacae, UniProt Q59401); assay: Inhibition of β-lactamases, nitrocefin hydrolysis; assay type: biochemical; settings: nitrocefin 100 μM, 10 min pre-incubation
T4 construct: made in house; host or cells: Escherichia coli AS226-51 harbouring pCS100
Experimental: GC1 β-lactamase was purified from Escherichia coli AS226-51 harbouring pCS100, which was a generous gift from Prof. M. Nukaga (Josai International University, Japan). The cell culture was harvested and subjected to a stringent periplasmic lysis protocol according to Crichlow et al. (Biochemistry 1999, 38, 10256-10261.). Purification proceeded similarly to Nukaga et al. (J. Biol. Chem. 2004, 279, 9344-9352.) with cation exchange chromatography (CM Sephadex C-50) equilibrated with 10 mM sodium phosphate buffer (pH 6), followed by elution with a stepwise gradient of increasing NaCl concentration. Fractions containing β-lactamase activity were then applied to a phenylboronate column (MoBiTec, Germany), equilibrated with 20 mM triethanolamine.HCl, pH 7.0, 0.5 M NaCl. The column was washed with the same buffer and then eluted with sterile 0.5 M borate buffer, pH 7.0, 0.5 M NaCl. Active fractions eluted from the phenylboronate column were analyzed for purity via SDS-PAGE, pooled, and concentrated before buffer exchange to 100 mM sodium phosphate, pH 7.0.
as §3, §2

[6] = target: T5, class A β-lactamase KPC-2 (Klebsiella pneumoniae, UniProt Q9F663); assay: Inhibition of β-lactamases, nitrocefin hydrolysis; assay type: biochemical; settings: nitrocefin 100 μM, 10 min pre-incubation
T5 construct: calculated for a mature protein with a 24 amino acid signal peptide removed; made in house; host or cells: Escherichia coli DH5α (pBR322-catI-blaKPC-2)
Experimental: The KPC-2 β-lactamase was purified from Escherichia coli DH5α strain containing the plasmid, pBR322-catI-blaKPC-2, which was kindly provided by Prof. F. van den Akker (Case Western Reserve University). Expression and purification of the enzyme was similar to that reported by Ke et al. (Biochemistry 2007, 46, 5732-5740). A molecular weight of 28,472 Da for the purified KPC-2 was determined by ESI MS. This is in close agreement with that calculated for a mature protein with a 24 amino acid signal peptide removed.
as §1, §2

[7] = system: Stenotrophomonas maltophilia IS 5568; assay: Antimicrobial MIC / checkerboard assay for synergy with meropenem; assay type: cell-based; settings: S. maltophilia IS 5568; meropenem + compound, checkerboard
Experimental: (§4) Assays were conducted as described by Weigand et al. (Weigand, I.; Hilpert, K.; Hancock, R. E. Nat. Protocols 2008, 3, 163-175).
(§5) To determine the lowest concentration of an antimicrobial agent that inhibits visible growth of a microorganism, 50 μL of compound solution and 50 μL of buffer solution were added to each well at the desired concentration(s) (i.e. 4×the final concentration) as well as a zero control. Stock solutions of 10 mg/mL, were prepared in DMSO, followed by two-fold serial dilutions in Müeller-Hinton media and 100 μL of bacteria (ca. 5×10^5 CFU/mL) was added to each well. Plate counts were performed on the control wells to determine bacterial innoculum level. The innoculum was prepared by taking an overnight culture in Müeller-Hinton media and diluting to McFarland's 0.5 standard, and diluting a further 1:100 prior to addition to the plate. Lanes with no bacteria added served as sterility controls and lanes with no compound served as growth controls. Organisms were allowed to grow overnight at 37° C. in a humid environment and the plates were monitored at 625 nm for growth. MIC was determined to be the last well with no growth.
(§6) In the checkerboard assay one compound is serially diluted along the ordinate, and the second compound is serially diluted along the abscissa. […] A 50 μL aliquot of the compound was added to each well at the desired concentration(s) (i.e. 4×the final concentration) as well as a zero control. Stock solutions of 10 mg/mL of compound were prepared in DMSO, followed by two-fold serial dilutions in Müeller-Hinton media. Finally, 100 μL of bacteria (ca. 5×10^5 CFU/mL) was added to each well. Plate counts were performed on the control wells. Innoculum was prepared by taking an overnight culture in Müeller-Hinton media and diluting to McFarland's 0.5 standard, and diluting a further 1:100 prior to addition to the plate. […] The final volume in each well was 200 μL. The plates were allowed to grow overnight at 37° C. in a humid environment and were monitored at 625 nm for growth. […] Sterility controls and growth controls were included on each plate. The fractional inhibitory concentration (FIC) was determined as follows:
(§7) Results were interpreted in the following way: Synergistic if FIC≦0.5; Additive if […]; Indifferent if […]; Antagonistic if FIC≧2.0.

[8] = system: Pseudomonas aeruginosa IS 5563; assay: as above; assay type: cell-based; settings: P. aeruginosa IS 5563; meropenem + compound, checkerboard
Experimental: as §4, §5, §6, §7

[9] = target: T6, IMP-1 (Serratia marcescens, UniProt P52699); assay: Sensitivity of IMP-1 to proteolysis by trypsin after incubation with inhibitor; assay type: biochemical; settings: incubation of IMP-1 with inhibitor
T6 construct: made in house; host or cells: Escherichia coli BL21(DE3) carrying pCIP4

[10] = system: β-lactamases; assay: β-Lactamase inhibition, result in words; assay type: biochemical
Text: In preferred embodiments, the compounds incorporate a good leaving group at the C3′ carbon that can be readily expelled as an anion. In some embodiments, the leaving group is a C3′-benzoylthio group, which may be substituted or unsubstituted, according to the definitions provided above for substituted or unsubstituted.
This effect correlates with the expected better leaving group ability of the benzoylthio group in the hydrolysis product versus the benzoate group in the comparative compound.

[11] = system: Stenotrophomonas maltophilia IS 6081; assay: Antimicrobial MIC / checkerboard assay for synergy with meropenem; assay type: cell-based; settings: S. maltophilia IS 6081, meropenem + compound
Experimental: as §4, §5
(§8) In the checkerboard assay one compound is serially diluted along the ordinate, and the second compound is serially diluted along the abscissa. […] A 50 μL aliquot of the compound was added to each well at the desired concentration(s) (i.e. 4×the final concentration) as well as a zero control. Stock solutions of 10 mg/mL of compound were prepared in DMSO, followed by two-fold serial dilutions in Müeller-Hinton media. Finally, 100 μL of bacteria (ca. 5×10^5 CFU/mL) was added to each well. Plate counts were performed on the control wells. Innoculum was prepared by taking an overnight culture in Müeller-Hinton media and diluting to McFarland's 0.5 standard, and diluting a further 1:100 prior to addition to the plate. Lanes with no bacteria added served as sterility controls and lanes with no meropenem or compound served as growth controls. The final volume in each well was 200 μL. The plates were allowed to grow overnight at 37° C. in a humid environment and were monitored at 625 nm for growth. […] Sterility controls and growth controls were included on each plate. The fractional inhibitory concentration (FIC) was determined as follows:
as §7

[12] = system: Chryseobacterium meningosepticum IS 5824; assay: as above; assay type: cell-based; settings: C. meningosepticum IS 5824; meropenem + compound, checkerboard
Experimental: as §4, §5, §8, §7

[13] = system: Stenotrophomonas maltophilia IS 6069; assay: as above; assay type: cell-based; settings: S. maltophilia IS 6069, meropenem + compound
Experimental: as §4, §5, §8, §7

[14] = system: Pseudomonas aeruginosa IS 6225; assay: as above; assay type: cell-based; settings: P. aeruginosa IS 6225, meropenem + compound
Experimental: as §4, §5, §8, §7

[15] = system: Pseudomonas aeruginosa C-10; assay: as above; assay type: cell-based; settings: P. aeruginosa C-10; meropenem + compound, checkerboard
Experimental: as §4, §5, §8, §7

[16] = target: MBL CfiA (Aeromonas hydrophila, UniProt P26918); settings: cited from earlier work
[17] = target: T6, IMP-1; assay: Inhibition of IMP-1-catalyzed hydrolysis of meropenem in vitro (310 nm); assay type: biochemical

T6 sequence (P52699 19-246 limits assumed): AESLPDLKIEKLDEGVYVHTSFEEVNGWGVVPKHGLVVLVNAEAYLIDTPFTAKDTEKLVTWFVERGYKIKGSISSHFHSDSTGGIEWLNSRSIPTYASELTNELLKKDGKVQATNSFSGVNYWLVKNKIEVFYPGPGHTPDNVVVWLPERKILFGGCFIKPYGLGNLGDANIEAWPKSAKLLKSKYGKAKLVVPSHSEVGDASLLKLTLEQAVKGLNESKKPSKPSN
T1 sequence (P52699 19-246, looked up): as the sequence (P52699 19-246 limits assumed) above
MBL CfiA, sequence (P26918 28-254): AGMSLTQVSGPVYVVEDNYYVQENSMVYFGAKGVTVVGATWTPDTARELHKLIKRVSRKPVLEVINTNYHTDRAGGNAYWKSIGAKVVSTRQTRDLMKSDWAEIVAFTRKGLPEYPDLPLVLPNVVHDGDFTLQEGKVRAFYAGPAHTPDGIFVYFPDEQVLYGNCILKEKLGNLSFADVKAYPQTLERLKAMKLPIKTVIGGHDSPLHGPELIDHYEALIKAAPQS
class B β-lactamase NDM-1, sequence (C7C422 29-270, looked up): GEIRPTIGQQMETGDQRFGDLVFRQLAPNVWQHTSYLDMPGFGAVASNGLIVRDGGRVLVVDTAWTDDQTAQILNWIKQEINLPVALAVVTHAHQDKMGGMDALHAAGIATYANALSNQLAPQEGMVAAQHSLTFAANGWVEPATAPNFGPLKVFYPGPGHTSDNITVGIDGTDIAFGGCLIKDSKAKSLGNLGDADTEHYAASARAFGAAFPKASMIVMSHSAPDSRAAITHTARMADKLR
T4 sequence (Q59401 entry or part of it): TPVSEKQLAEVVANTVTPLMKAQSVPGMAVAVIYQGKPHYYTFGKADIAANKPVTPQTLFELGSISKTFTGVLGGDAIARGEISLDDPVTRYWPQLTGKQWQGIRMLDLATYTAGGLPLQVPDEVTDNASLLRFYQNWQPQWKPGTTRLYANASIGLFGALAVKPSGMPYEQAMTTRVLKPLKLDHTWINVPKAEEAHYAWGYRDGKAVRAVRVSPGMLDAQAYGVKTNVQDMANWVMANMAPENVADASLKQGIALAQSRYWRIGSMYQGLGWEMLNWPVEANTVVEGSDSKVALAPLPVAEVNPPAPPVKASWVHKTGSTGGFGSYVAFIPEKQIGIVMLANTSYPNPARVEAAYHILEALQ
T3 sequence (P14489 20-266): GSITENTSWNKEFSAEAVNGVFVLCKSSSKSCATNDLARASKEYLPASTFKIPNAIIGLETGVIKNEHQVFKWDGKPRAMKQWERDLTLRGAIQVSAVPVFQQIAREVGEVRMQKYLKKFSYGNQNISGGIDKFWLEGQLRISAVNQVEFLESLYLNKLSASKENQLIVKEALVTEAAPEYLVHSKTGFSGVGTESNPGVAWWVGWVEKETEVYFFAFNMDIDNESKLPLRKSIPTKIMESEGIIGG
T5 sequence (Q9F663 25-293, looked up): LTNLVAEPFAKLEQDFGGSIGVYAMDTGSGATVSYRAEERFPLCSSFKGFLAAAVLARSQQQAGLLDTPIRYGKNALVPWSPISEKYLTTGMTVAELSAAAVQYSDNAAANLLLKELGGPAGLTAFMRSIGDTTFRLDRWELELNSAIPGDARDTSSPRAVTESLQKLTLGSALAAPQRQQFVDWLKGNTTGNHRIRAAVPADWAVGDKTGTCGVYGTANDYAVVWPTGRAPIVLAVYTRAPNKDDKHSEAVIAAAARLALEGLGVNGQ

O=C(Cc1ccc(F)cc1)N[C@@H]1C(=O)N2C(C(=O)O)=C(CSC(=O)c3ccccc3)CS[C@H]12 [drawing 28]
IC50 [1]: 40 µM
IC50 [2]: 8.2 µM
IC50 [3]: 4.2 µM
IC50 [4]: 6.3 µM
IC50 [5]: 11 µM
IC50 [6]: 104 µM

O=C(Cc1cccs1)N[C@@H]1C(=O)N2C(C(=O)O)=C(CSC(=O)c3ccccc3)CS[C@H]12 [CMPD A, (6R,7R)-3-(benzoylthiomethyl)-8-oxo-7-(2-(thiophen-2-yl)acetamido)-5-thia-1-azabicyclo[4.2.0]oct-2-ene-2-carboxylic acid]
FIC [7]: 0.1328
FIC [8]: 0.1289
effect on sensitivity of IMP-1 to proteolysis by trypsin [9]: increases the sensitivity of the protein to proteolysis by trypsin
β-lactamase inhibition [10]: good inhibitor
FIC [11]: 0.2539
FIC [12]: 0.2539
FIC [13]: 0.25
FIC [14]: 0.625
FIC [15]: 0.5625

CO[C@@]1(NC(=O)C(C(=O)O)c2ccc(O)cc2)C(=O)N2C(C(=O)O)=C(CSc3nnnn3C)CO[C@@H]21 (stereo partly drawn) [moxalactam]
incubation required for full inactivation of CfiA [16]: 14 h
performance as inhibitor [17]: poor performance
protection of meropenem from IMP-1-catalyzed hydrolysis in vitro ([17]; IMP-1 12 nM, meropenem 200 μM, test substance 100 μM, 310 nm): poor protection

From patent publication US20120329770A1, “CEPHALOSPORIN DERIVATIVES USEFUL AS BETA-LACTAMASE INHIBITORS AND COMPOSITIONS AND METHODS OF USE THEREOF” (priority 2010, published 2012)
